The test system of experiment [1] is ISC-enriched organoids. Nature of the experiment: Primary screen, 384-well 2.5-D organoid differentiation (ENR+CD, 6 days, Target Selective Inhibitor Library, vs whole-plate median): ATP (CellTiter-Glo 3D, CTG). The conditions noted are these: for Dose.FC.CTG: FC vs plate median; for Z.CTG: standard z score of FC. In general terms: In ATP-based viability assays light output follows the ATP content of the culture.

For experiment [2], the system named is ISC-enriched organoids. Nature of the experiment: Primary screen, 384-well 2.5-D organoid differentiation (ENR+CD, 6 days): basal lysozyme secretion (LYZ.NS). The experiment is classed as cell-based, murine. To be noted: for Dose.FC.LYZ.NS: FC vs plate median; for Z.LYZ.NS: standard z score of FC. The text has this: (§1) High-throughput screening.
Experiment [3] has as its system ISC-enriched organoids. The experiment in a line: Primary screen, 384-well 2.5-D organoid differentiation (ENR+CD, 6 days): carbachol-induced lysozyme secretion (LYZ.S). The experiment is classed as cell-based, murine. The conditions noted are these: FC vs plate median.
Text: as §1

Setting [4] is: primary screen, dose 0.08 uM, ENR+CD 6 days.
[5] abbreviates: primary screen, dose 0.40 uM, ENR+CD 6 days.
Setting [6] is: primary screen, dose 2.00 uM, ENR+CD 6 days.
[7] abbreviates: primary screen, dose 10.00 uM, ENR+CD 6 days.

Take `CC(C)CCN1c2nc(Nc3cc(F)c(O)c(F)c3)ncc2N(C)C(=O)C1C` (centres unmarked) [BI-D1870]: the Dose.FC.CTG is recorded as 0.186 log 2 fold change in experiment [1] (setting [4]), 0.029 log 2 fold change in experiment [1] (setting [5]), −0.012 log 2 fold change in experiment [1] (setting [6]) and −0.700 log 2 fold change in experiment [1] (setting [7]). The Z.CTG in experiment [1] (primary screen, dose 0.08 uM) was 0.444; in experiment [1] (primary screen, dose 0.40 uM) it was 0.069; in experiment [1] (primary screen, dose 2.00 uM), −0.028; in experiment [1] (primary screen, dose 10.00 uM) it was −1.673. Moreover, the Dose.FC.LYZ.NS in experiment [2] (setting [4]) is reported as 0.141 log 2 fold change; in experiment [2] (setting [5]), 0.126 log 2 fold change; in experiment [2] (setting [6]) it was −0.066 log 2 fold change; in experiment [2] (setting [7]), −0.285 log 2 fold change. The Z.LYZ.NS was 1.225 in experiment [2] (primary screen, dose 0.08 uM); 1.099 in experiment [2] (primary screen, dose 0.40 uM); −0.574 in experiment [2] (primary screen, dose 2.00 uM); −2.483 in experiment [2] (primary screen, dose 10.00 uM). The Dose.FC.LYZ.S in experiment [3] (setting [4]) is 0.162 log 2 fold change; in experiment [3] (setting [5]), 0.158 log 2 fold change; in experiment [3] (setting [6]), 0.008 log 2 fold change; in experiment [3] (setting [7]), −0.378 log 2 fold change.
`C/C(=C\C(=O)Nc1ccccc1C(=O)O)c1ccc2ccccc2c1` [BIBR 1532]: the Dose.FC.CTG was 0.223 log 2 fold change in experiment [1] (setting [4]), −0.047 log 2 fold change in experiment [1] (setting [5]), −0.034 log 2 fold change in experiment [1] (setting [6]) and 0.030 log 2 fold change in experiment [1] (setting [7]). Moreover, the Z.CTG in experiment [1] (primary screen, dose 0.08 uM) is 0.533; in experiment [1] (primary screen, dose 0.40 uM), −0.113; in experiment [1] (primary screen, dose 2.00 uM) it was −0.080; in experiment [1] (primary screen, dose 10.00 uM), 0.072. Further, the Dose.FC.LYZ.NS in experiment [2] (setting [4]) is 0.032 log 2 fold change; in experiment [2] (setting [5]), 0.043 log 2 fold change; in experiment [2] (setting [6]) it was −0.013 log 2 fold change; in experiment [2] (setting [7]), −0.062 log 2 fold change. Further, the Z.LYZ.NS was 0.282 in experiment [2] (primary screen, dose 0.08 uM); 0.377 in experiment [2] (primary screen, dose 0.40 uM); −0.117 in experiment [2] (primary screen, dose 2.00 uM); −0.536 in experiment [2] (primary screen, dose 10.00 uM). Further, the Dose.FC.LYZ.S in experiment [3] (setting [4]) was 0.028 log 2 fold change; in experiment [3] (setting [5]), 0.107 log 2 fold change; in experiment [3] (setting [6]), −0.081 log 2 fold change; in experiment [3] (setting [7]), −0.114 log 2 fold change.
Take `COc1ccc2c(c1)c(CC(=O)N1CCOCC1)c(C)n2C(=O)c1ccc(Cl)cc1` [BML-190]: the Dose.FC.CTG in experiment [1] (setting [4]) is −0.003 log 2 fold change; in experiment [1] (setting [5]), −0.099 log 2 fold change; in experiment [1] (setting [6]), −0.106 log 2 fold change; in experiment [1] (setting [7]), −0.106 log 2 fold change. Also, the Z.CTG is reported as −0.007 in experiment [1] (primary screen, dose 0.08 uM); −0.237 in experiment [1] (primary screen, dose 0.40 uM); −0.254 in experiment [1] (primary screen, dose 2.00 uM); −0.254 in experiment [1] (primary screen, dose 10.00 uM). Also, the Dose.FC.LYZ.NS in experiment [2] (setting [4]) is reported as 0.072 log 2 fold change; in experiment [2] (setting [5]) it was −0.017 log 2 fold change; in experiment [2] (setting [6]), 0.116 log 2 fold change; in experiment [2] (setting [7]), 0.209 log 2 fold change. Besides, the Z.LYZ.NS in experiment [2] (primary screen, dose 0.08 uM) is on record as 0.623; in experiment [2] (primary screen, dose 0.40 uM), −0.152; in experiment [2] (primary screen, dose 2.00 uM), 1.011; in experiment [2] (primary screen, dose 10.00 uM), 1.823. In addition, the Dose.FC.LYZ.S was 0.060 log 2 fold change in experiment [3] (setting [4]), −0.037 log 2 fold change in experiment [3] (setting [5]), 0.017 log 2 fold change in experiment [3] (setting [6]) and 0.067 log 2 fold change in experiment [3] (setting [7]).
With `COc1ccnc2[nH]cc(C(=O)C(=O)N3CCN(C(=O)c4ccccc4)C[C@H]3C)c12` [BMS-378806], the Dose.FC.CTG was 0.233 log 2 fold change in experiment [1] (setting [4]), 0.102 log 2 fold change in experiment [1] (setting [5]), −0.289 log 2 fold change in experiment [1] (setting [6]) and −1.155 log 2 fold change in experiment [1] (setting [7]). For the same molecule, the Z.CTG is 0.557 in experiment [1] (primary screen, dose 0.08 uM); 0.243 in experiment [1] (primary screen, dose 0.40 uM); −0.691 in experiment [1] (primary screen, dose 2.00 uM); −2.758 in experiment [1] (primary screen, dose 10.00 uM). The Dose.FC.LYZ.NS is recorded as 0.141 log 2 fold change in experiment [2] (setting [4]), −0.007 log 2 fold change in experiment [2] (setting [5]), −0.100 log 2 fold change in experiment [2] (setting [6]) and −0.227 log 2 fold change in experiment [2] (setting [7]). In addition, the Z.LYZ.NS in experiment [2] (primary screen, dose 0.08 uM) is 1.231; in experiment [2] (primary screen, dose 0.40 uM) it was −0.061; in experiment [2] (primary screen, dose 2.00 uM) it was −0.870; in experiment [2] (primary screen, dose 10.00 uM), −1.977. The Dose.FC.LYZ.S in experiment [3] (setting [4]) was 0.159 log 2 fold change; in experiment [3] (setting [5]), 0.007 log 2 fold change; in experiment [3] (setting [6]), −0.142 log 2 fold change; in experiment [3] (setting [7]), −0.322 log 2 fold change.
Consider `O=C(Oc1cc(S(=O)(=O)c2ccccc2)ccc1[N+](=O)[O-])c1ccc(Cl)cc1` [BTB06584], for which the Dose.FC.CTG is reported as 0.275 log 2 fold change in experiment [1] (setting [4]), 0.288 log 2 fold change in experiment [1] (setting [5]), −0.180 log 2 fold change in experiment [1] (setting [6]) and 0.199 log 2 fold change in experiment [1] (setting [7]). Further, the Z.CTG in experiment [1] (primary screen, dose 0.08 uM) is reported as 0.657; in experiment [1] (primary screen, dose 0.40 uM), 0.688; in experiment [1] (primary screen, dose 2.00 uM), −0.431; in experiment [1] (primary screen, dose 10.00 uM), 0.475. For the same molecule, the Dose.FC.LYZ.NS in experiment [2] (setting [4]) is 0.091 log 2 fold change; in experiment [2] (setting [5]), 0.025 log 2 fold change; in experiment [2] (setting [6]), 0.024 log 2 fold change; in experiment [2] (setting [7]) it was −0.031 log 2 fold change. Besides, the Z.LYZ.NS is recorded as 0.795 in experiment [2] (primary screen, dose 0.08 uM); 0.214 in experiment [2] (primary screen, dose 0.40 uM); 0.206 in experiment [2] (primary screen, dose 2.00 uM); −0.268 in experiment [2] (primary screen, dose 10.00 uM). In addition, the Dose.FC.LYZ.S in experiment [3] (setting [4]) is listed as 0.222 log 2 fold change; in experiment [3] (setting [5]), 0.042 log 2 fold change; in experiment [3] (setting [6]) it was 0.039 log 2 fold change; in experiment [3] (setting [7]), 0.019 log 2 fold change.
With `O=C(Nc1cccc(Nc2ncc(Br)c(NCCc3cnc[nH]3)n2)c1)N1CCCC1` [BX-912], the Dose.FC.CTG in experiment [1] (Dose 0.08 uM, ENR+CD, 6 days) was 0.043 log 2 fold change; in experiment [1] (Dose 0.40 uM, ENR+CD, 6 days), 0.054 log 2 fold change; in experiment [1] (Dose 2.00 uM, ENR+CD, 6 days) it was −0.246 log 2 fold change; in experiment [1] (Dose 10.00 uM, ENR+CD, 6 days), −0.397 log 2 fold change. Moreover, the Z.CTG in experiment [1] (Dose 0.08 uM) was 0.103; in experiment [1] (Dose 0.40 uM), 0.129; in experiment [1] (Dose 2.00 uM), −0.587; in experiment [1] (Dose 10.00 uM) it was −0.949. In addition, the Dose.FC.LYZ.NS is on record as 0.010 log 2 fold change in experiment [2] (Dose 0.08 uM, ENR+CD, 6 days); 0.017 log 2 fold change in experiment [2] (Dose 0.40 uM, ENR+CD, 6 days); −0.089 log 2 fold change in experiment [2] (Dose 2.00 uM, ENR+CD, 6 days); −0.196 log 2 fold change in experiment [2] (Dose 10.00 uM, ENR+CD, 6 days). The Z.LYZ.NS in experiment [2] (Dose 0.08 uM) is reported as 0.090; in experiment [2] (Dose 0.40 uM) it was 0.151; in experiment [2] (Dose 2.00 uM), −0.771; in experiment [2] (Dose 10.00 uM), −1.704. Moreover, the Dose.FC.LYZ.S in experiment [3] (Dose 0.08 uM, ENR+CD, 6 days) is recorded as 0.038 log 2 fold change; in experiment [3] (Dose 0.40 uM, ENR+CD, 6 days), 0.042 log 2 fold change; in experiment [3] (Dose 2.00 uM, ENR+CD, 6 days) it was −0.161 log 2 fold change; in experiment [3] (Dose 10.00 uM, ENR+CD, 6 days), −0.272 log 2 fold change.
Turning to `CNC(=O)[C@H](Cc1ccccc1)NC(=O)[C@H](CC(C)C)[C@H](CSc1cccs1)C(=O)NO` [Batimastat (BB-94)], the Dose.FC.CTG in experiment [1] (setting [4]) is listed as 0.035 log 2 fold change; in experiment [1] (setting [5]), −0.095 log 2 fold change; in experiment [1] (setting [6]), −0.049 log 2 fold change; in experiment [1] (setting [7]) it was −0.283 log 2 fold change. Further, the Z.CTG in experiment [1] (primary screen, dose 0.08 uM) was 0.084; in experiment [1] (primary screen, dose 0.40 uM), −0.226; in experiment [1] (primary screen, dose 2.00 uM), −0.117; in experiment [1] (primary screen, dose 10.00 uM) it was −0.676. Moreover, the Dose.FC.LYZ.NS is listed as −0.003 log 2 fold change in experiment [2] (setting [4]), 0.005 log 2 fold change in experiment [2] (setting [5]), 0.081 log 2 fold change in experiment [2] (setting [6]) and −0.075 log 2 fold change in experiment [2] (setting [7]). The Z.LYZ.NS in experiment [2] (primary screen, dose 0.08 uM) is on record as −0.025; in experiment [2] (primary screen, dose 0.40 uM), 0.042; in experiment [2] (primary screen, dose 2.00 uM) it was 0.707; in experiment [2] (primary screen, dose 10.00 uM) it was −0.649. Further, the Dose.FC.LYZ.S in experiment [3] (setting [4]) is on record as 0.053 log 2 fold change; in experiment [3] (setting [5]), 0.028 log 2 fold change; in experiment [3] (setting [6]) it was 0.056 log 2 fold change; in experiment [3] (setting [7]), −0.107 log 2 fold change.

For the origin of these results see patent publication US20230398130A1, “METHODS AND COMPOSITIONS FOR DIFFERENTIATING STEM CELLS” (Massachusetts Institute of Technology, priority 2020, published 2023).
